Laboratory results as given in article PMC12084609, “Structural insights into small-molecule agonist recognition and activation of complement receptor C3aR” (The EMBO Journal, 2025).
Where a chain is given by its changes, count along the chain named. Where “and” joins values, the source holds several entries; their conditions need not be identical. Identical values can stand only once. Like-named read-outs stand apart in the source and are kept apart here.

Legend:
Assay type in all cases: cell-based
[1] = target: T1, C3aR I421^7.39A (Homo sapiens, UniProt Q16581, I421A); test: GloSensor-based cAMP assay, C3aR mutant I421A
T1 construct: expressed in transfected cells; host or cells: HEK293T
T1 sequence (Q16581 1-482 I421A): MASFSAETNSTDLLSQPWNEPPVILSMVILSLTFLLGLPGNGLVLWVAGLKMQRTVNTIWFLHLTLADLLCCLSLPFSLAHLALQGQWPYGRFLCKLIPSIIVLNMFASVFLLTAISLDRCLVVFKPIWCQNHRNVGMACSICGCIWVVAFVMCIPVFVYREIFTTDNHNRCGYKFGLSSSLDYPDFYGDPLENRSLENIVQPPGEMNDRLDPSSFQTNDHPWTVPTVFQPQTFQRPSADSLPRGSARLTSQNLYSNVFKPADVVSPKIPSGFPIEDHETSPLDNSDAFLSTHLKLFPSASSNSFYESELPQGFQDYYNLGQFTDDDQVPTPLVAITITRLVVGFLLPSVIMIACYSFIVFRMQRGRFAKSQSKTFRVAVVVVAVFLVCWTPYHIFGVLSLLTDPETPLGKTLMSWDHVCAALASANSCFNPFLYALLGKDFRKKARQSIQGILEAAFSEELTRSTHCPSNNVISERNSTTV
Experimental: (§1) HEK293T cells were seeded on 6-well plates (NEST) and transfected with pGlosensor™-22F plasmids (Promega) and pcDNA3.1 plasmids encoding C3aR or its mutants an with N-terminal FLAG tag. After 48 h, cells were detached with Accutase solution (Sigma-Aldrich) and washed with PBS, and resuspended in assay buffer (CO2-independent medium with 0.5 mg mL^−1D-luciferin). 100,000–200,000 cells were seeded on 96-well white bottom plates (SPL) and incubated at 37 °C for 45 min followed by 45 min incubation at room temperature. After 90 min of incubation, basal luminescence signals were recorded. In total, 25 μl of test ligand with various concentrations and 1 μM Forskolin (Sigma-Aldrich) were treated to the cells and luminescence signals were measured by Tristar 2 LB 942 multimode reader (Berthold). […] Relative luminescence unit (%) was calculated with the signal of wells treated with vehicle as 0% and the signal of wells treated with 1 μM Forskolin as 100% (DiRaddo et al, [2014]). Nonlinear regression was performed using a three-parameter logistic equation.

[2] = target: T2, C3aR H418^7.36A (Homo sapiens, UniProt Q16581, H418A); test: GloSensor-based cAMP assay, C3aR mutant H418A
T2 construct: expressed in transfected cells; host or cells: HEK293T
T2 sequence (Q16581 1-482 H418A): T1 sequence (Q16581 1-482 I421A) with H418A, A421I
Experimental: as §1

[3] = target: T3, C3aR WT (Homo sapiens, UniProt Q16581); test: GloSensor-based cAMP assay, WT C3aR (HEK293T); settings: for remaining activity at 0.0001 µM / remaining activity at 10 pM: HEK-293T; for IC50: WT C3aR
T3 construct: expressed in transfected cells; host or cells: HEK293T
T3 sequence (Q16581 1-482): T1 sequence (Q16581 1-482 I421A) with A421I
Experimental: as §1

[4] = Dunnett's multiple comparisons test, WT minus mutant

Cc1cc(C(c2ccc(Cl)cc2)c2ccc(Cl)cc2)sc1C(=O)N[C@@H](CCCNC(=N)N)C(=O)O [JR14a, reference compound]
Mean Diff. of pIC50, WT vs. I421A [1, 4]: 1.797 | remaining activity at 0.01 µM ([1]; I421A, Log[JR14a (M)] -8, single replicates, read-out: cAMP response (% Forskolin)): 91.4% | remaining activity at 0.001 µM ([1]; I421A, Log[JR14a (M)] -9, single replicates, read-out: cAMP response (% Forskolin)): 92.7% | remaining activity at 0.0001 µM ([1]; I421A, Log[JR14a (M)] -10, single replicates, read-out: cAMP response (% Forskolin)): 96.4% | remaining activity at 10 pM ([1]; I421A, Log[JR14a (M)] -11, single replicates, read-out: cAMP response (% Forskolin)): 93.5% | reduction in ligand-induced signaling vs WT ([1]; I421^7.39A mutant): 60 fold | ΔpIC50 ± SE of Diff. ([1]; I421^7.39A relative to WT C3aR): -1.80 ± 0.06 | IC50 ([1]; IC50, I421^7.39A, dose-response plot): 204 nM | IC50 ([1]; pIC50 (Replicate), I421^7.39A, individual replicates): 229 nM and 263 nM and 331 nM and 115 nM | IC50 ([1]; pIC50 ± SEM (Mean), I421^7.39A, mean of independent experiments): 219 nM | Mean Diff. of pIC50, WT vs. H418A [2, 4]: -0.145 | ΔpIC50 ± SE of Diff. ([2]; H418^7.36A relative to WT C3aR): 0.14 ± 0.08 | IC50 ([2]; H418^7.36A, mean of independent experiments, read-out: pIC50 ± SEM (Mean) (converted)): 2.51 nM | IC50 ([2]; IC50, H418^7.36A, dose-response plot): 2.56 nM | IC50 ([2]; pIC50 (Replicate), H418^7.36A, individual replicates): 2.04 nM and 4.07 nM and 4.79 nM and 0.977 nM | remaining activity at 0.0001 µM ([3]; read-out: cAMP response (% Forskolin), Log[ligand (M)] -10, individual replicates): 93.3% | remaining activity at 10 pM ([3]; read-out: cAMP response (% Forskolin), Log[ligand (M)] -11, individual replicates): 95.3% | remaining activity at 0.0001 µM ([3]; read-out: cAMP response (% Forskolin), WT, Log[JR14a (M)] -10, single replicates): 93.3% | remaining activity at 10 pM ([3]; read-out: cAMP response (% Forskolin), WT, Log[JR14a (M)] -11, single replicates): 95.3% | IC50 ([3]; decrease in cAMP levels, read-out: IC50): 4 nM | IC50 ([3]; individual replicates, read-out: pIC50 (Replicate) (converted)): 6.31 nM and 3.98 nM and 5.01 nM | mode of action at C3aR ([3]; from BRET and cAMP accumulation assays): agonist | IC50 ([3]; pIC50 (Replicate), individual replicates): 2.63 nM and 3.09 nM and 7.08 nM (2×) and 5.75 nM (2×) and 11.5 nM and 8.13 nM and 2.45 nM (2×) and 1.78 nM | IC50 ([3]; pIC50 Value, Figure EV1B numerical data, curve fit): 3.89 nM | IC50 ([3]; pIC50 ± SEM (Mean), 1 μM Forskolin, mean of independent experiments): 4.57 nM | Span Value ([3]; span of cAMP response (% Forskolin) curve, Figure EV1B numerical data): 84.43
